The values below come from patent US11384060B2, “Amide compounds and use thereof” (ALPHALA CO., LTD., priority 2017, dated 2022).

Broadly, the IC50 is the midpoint of a concentration-inhibition curve. Lower therefore signals greater potency in that assay.

The structures appear in SMILES notation. Read-outs that look alike come from different tables or passages of the source.

The target in one assay is T1, glucagon receptor (GCGR) (Homo sapiens, UniProt P47871).
T1 construct: expressed in transfected cells; host or cells: CHO-K1 cells overexpressing GCGR (membrane fractions)
T1 sequence (P47871 26-477): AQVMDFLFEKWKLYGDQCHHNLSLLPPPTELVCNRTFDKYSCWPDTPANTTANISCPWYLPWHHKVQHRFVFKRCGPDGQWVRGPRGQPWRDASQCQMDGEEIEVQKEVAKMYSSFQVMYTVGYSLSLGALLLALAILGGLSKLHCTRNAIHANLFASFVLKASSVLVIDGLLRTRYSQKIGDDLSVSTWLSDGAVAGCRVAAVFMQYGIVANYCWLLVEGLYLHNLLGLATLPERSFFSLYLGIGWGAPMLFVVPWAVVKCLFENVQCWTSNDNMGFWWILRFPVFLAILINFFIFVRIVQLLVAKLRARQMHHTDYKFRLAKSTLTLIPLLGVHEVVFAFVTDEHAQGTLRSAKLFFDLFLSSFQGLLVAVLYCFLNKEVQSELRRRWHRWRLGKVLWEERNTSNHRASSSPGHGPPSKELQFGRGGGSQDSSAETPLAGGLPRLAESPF
The assay can be described thus: I125-glucagon binding assay (competition, GCGR membrane fractions). In a few lines:
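Competition of 0.0625 nM (final) I^125-glucagon for 30 min at 25° C, after 5 min compound preincubation, using 7.5 μg/well GCGR-overexpressing CHO-K1 membranes in 50 mM Tris pH 7.4, 0.5% BSA. Filtration onto PEI-coated GF/B, micro-beta counting, and non-linear regression gave IC50.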

For assay [1], the target named is T2, glucagon receptor (GCGR) overexpressed CHO-K1 cells or human primary hepatocytes (Homo sapiens, UniProt P47871).
T2 construct: expressed in transfected cells; host or cells: GCGR overexpressed CHO-K1 cells or human primary hepatocytes (endogenous receptor)
T2 sequence (P47871 26-477): as above
The assay can be described thus: Glucagon cAMP inhibition assay (Cisbio cAMP Dynamic 2 HTRF). It counts as cell-based. In a few lines:
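HTRF read-out of glucagon-induced cAMP, with IC50 from non-linear regression. Cells (GCGR CHO-K1 or human primary hepatocytes) in HBSS/0.1% BSA/800 nM IBMX took compound dilutions for 30 min (final DMSO 1%), then EC50-level glucagon for 30 min at room temperature, then a 60 min lysis/detection step.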
On the technique in general: Time-resolved FRET reads energy transfer from a long-lived donor to a nearby acceptor.

[2] abbreviates: competition with I125-glucagon 0.0625 nM, membrane fractions of GCGR overexpressed CHO-K1 cells.
Where [3] appears, read: inhibition of glucagon (EC50 concentration) induced cAMP production.

Regarding `O=C(O)CCNC(=O)c1ccc(N[C@@H](Cc2ccc3ccccc3c2)C(=O)Nc2ccc(-c3cc4ccccc4o3)cc2)cc1` [Compound 23-22, (S)-3-(4-((1-((4-(benzofuran-2-yl)phenyl)amino)-3-(naphthalen-2-yl)-1-oxopropan-2-yl)amino)benzamido)propanoic Acid], on glucagon receptor (GCGR) (uM), the IC50 was more than 10 µM. In addition, the “IC50 cAMP” value in assay [1] came out at 32.1 µM.
As to `CC(C)C[C@H](Nc1ccc(C(=O)NCCC(=O)O)cc1)C(=O)Nc1ccc(-c2cc3ccccc3o2)cc1` [Compound 23-5, (S)-3-(4-((1-((4-(benzofuran-2-yl)phenyl)amino)-4-methyl-1-oxopentan-2-yl)amino)benzamido)propanoic Acid], at glucagon receptor (GCGR), the half-maximal inhibitory concentration (IC50) turned out to be 0.08 µM. Also, the “IC50 cAMP” value in assay [1] came out at 3.5 µM.
Regarding `CCOC(=O)CCNC(=O)c1ccc(N[C@@H](Cc2ccc(F)cc2)C(=O)Nc2ccc(-c3cc4ccccc4o3)cc2)cc1` [Compound 23-9, Ethyl (S)-3-(4-((1-((4-(benzofuran-2-yl)phenyl)amino)-3-(4-fluorophenyl)-1-oxopropan-2-yl)amino)benzamido)propanoate], at glucagon receptor (GCGR), the concentration for half-maximal inhibition (IC50) was found to be 1.94 µM. The “IC50 cAMP” value in assay [1] worked out at 2.6 µM.
On to `CCCC[C@@H](COc1ccc(-c2ccc(C(C)(C)C)cc2)cc1)Nc1ccc(C(=O)NCCC(=O)O)cc1` [Compound 1-11, (S)-3-(4-((1-((4′-(tert-butyl)-[1,1′-biphenyl]-4-yl)oxy)hexan-2-yl)amino)benzamido)propanoic Acid], for which, at glucagon receptor (GCGR) (setting [2]), the IC50 is 0.15 µM. In addition, in assay [1] (setting [3]), the “IC50 cAMP” value worked out at 0.3203 µM.
At glucagon receptor (GCGR) (setting [2]), `CC(C)[C@@H](COc1ccc(-c2nnc(C(F)(F)F)o2)cc1)Nc1ccc(C(=O)NCCC(=O)O)cc1` [Compound 1-43, 3-(4-((3-methyl-1-(4-(5-(trifluoromethyl)-1,3,4-oxadiazol-2-yl)phenoxy)butan-2-yl)amino)benzamido)propanoic Acid] had an IC50 of 0.583 µM. Also, in assay [1] (setting [3]), the “IC50 cAMP” value is more than 30 µM.
As to `CC(C)[C@@H](COc1ccc(-c2ccc(F)cc2F)nn1)Nc1ccc(C(=O)NCCC(=O)O)cc1` [Compound 17-11, (S)-3-(4-((1-((6-(2,4-difluorophenyl)pyridazin-3-yl)oxy)-3-methylbutan-2-yl)amino)benzamido)propanoic Acid], at glucagon receptor (GCGR) (setting [2]), the concentration for half-maximal inhibition (IC50) came to 1.01 µM. Moreover, the “IC50 cAMP” value in assay [1] (setting [3]) is more than 30 µM.
In turn, `CC(C)[C@H](COc1ccc(-c2nc3ccccc3s2)cc1)Nc1ccc(C(=O)NCCC(=O)O)cc1` [Compound 1-52, (R)-3-(4-((1-(4-(benzo[d]thiazol-2-yl)phenoxy)-3-methylbutan-2-yl)amino)benzamido)propanoic Acid] came in with an IC50 at glucagon receptor (GCGR) (setting [2]) of 0.089 µM. The “IC50 cAMP” value in assay [1] (setting [3]) was found to be 0.377 µM.
Consider `CCOC(=O)CCNC(=O)c1ccc(N[C@@H](Cc2ccccc2)C(=O)Nc2ccc(-c3ccc(Cl)cc3Cl)cc2)cc1` [Compound 23-15, Ethyl (S)-3-(4-((1-((2′,4′-dichloro-[1,1′-biphenyl]-4-yl)amino)-1-oxo-3-phenylpropan-2-yl)amino)benzamido)propanoate], for which the half-inhibitory concentration (IC50) at glucagon receptor (GCGR) (uM) is more than 10 µM. Besides, in assay [1], the “IC50 cAMP” value amounted to 6.3 µM.
As to `CC(C)C[C@@H](COc1cc(F)c(-c2ccc(C(F)(F)F)cc2Cl)c(F)c1)Nc1ccc(C(=O)NCCC(=O)O)cc1` [Compound 7-5, (S)-3-(4-((1-((2′-chloro-2,6-difluoro-4′-(trifluoromethyl)-[1,1-biphenyl]-4-yl)oxy)-4-methylpentan-2-yl)amino)benzamido)propanoic Acid], the IC50 on glucagon receptor (GCGR) (setting [2]) worked out at 0.075 µM. Also, the “IC50 cAMP” value in assay [1] (setting [3]) was determined as 0.811 µM.
In the case of `CCOC(=O)CCNC(=O)c1ccc(N[C@H](COc2ccc(-c3cc4ccccc4o3)cc2)C(C)C)cc1` [Compound 1-1, Ethyl(S)-3-(4-((1-(4-(benzofuran-2-yl)phenoxy)-3-methylbutan-2-yl)amino)benzamido) propanoate], the IC50 on glucagon receptor (GCGR) (setting [2]) is 0.803 µM. For the same compound, in assay [1] (setting [3]), the “IC50 cAMP” value came out at 1.177 µM.
